Data on 10 compounds can be found in ChEMBL document CHEMBL1201862, “PubChem BioAssay data set” (2004).

The structures appear in SMILES notation.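 The compound was tested at five concentrations on cells cultured in 96-well plates, with a 48-hour exposure period. GI50: concentration for 50% inhibition of growth.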 Active and inactive are the calls of the source. No stated cut-off is given here; in the data, active = GI50 up to about 1.1 µM and inactive = higher.

Some test systems named below: SK-OV-3; SR; M14; HCT-116; SW-620; A498; SF-539; CAKI-1; CCRF-CEM; OVCAR-5; HOP-62; A549; NCI-H522; ACHN; NCI-H460; MOLT-4; MDA-MB-231; UO-31; SNB-19; COLO 205.
Holding throughout (assay): DTP human tumour cell line panel, 48 h

Regarding `O=C(c1c(F)c(F)c(F)c(F)c1F)c1c(F)c(F)c(F)c(F)c1F`, the GI50 (usually the concentration giving 50% growth inhibition) with SK-OV-3 is 2.39 µM (inactive); in the assay on SR, 0.174 µM (active); in the assay with M14 it was 2.1 µM (inactive); with HCT-116, 1.51 µM (inactive); in the assay on SW-620 it was 1.06 µM (active); in the assay on A498, 3.06 µM (inactive). Moreover, the GI50 was 1.09 µM (active) in the assay with SF-539; 0.914 µM (active) in the assay on CAKI-1; 0.0553 µM (active) in the assay on CCRF-CEM; 1.9 µM (inactive) in the assay on OVCAR-5; 1.81 µM (inactive) in the assay with HOP-62; 3.53 µM (inactive) in the assay on A549. Moreover, the GI50 with NCI-H522 was 0.182 µM (active); in the assay with ACHN, 1.7 µM (inactive); in the assay with NCI-H460 it was 2.25 µM (inactive); in the assay with MOLT-4, 0.171 µM (active); in the assay on MDA-MB-231, 1.85 µM (inactive); in the assay on UO-31, 1.23 µM (inactive). For the same compound, the values for the GI50 with SNB-19 and with COLO 205 were 4.06 µM (inactive) and 1.45 µM (inactive), respectively.

As to `CC(O)CCC(=O)c1ccoc1` (stereo not given), the GI50 is 6970 µM (inactive) with SK-OV-3; > 9290 µM (inactive) in the assay with SR; > 9420 µM (inactive) in the assay with M14; 5740 µM (inactive) in the assay with HCT-116; > 9750 µM (inactive) in the assay with SW-620; 3820 µM (inactive) in the assay with A498. Besides, the GI50 with SF-539 was 9930 µM (inactive); in the assay on CAKI-1, 2730 µM (inactive); in the assay on CCRF-CEM, 5650 µM (inactive); with OVCAR-5 it was 7820 µM (inactive); with HOP-62, 6930 µM (inactive); in the assay with A549, 3940 µM (inactive). In addition, the GI50 was 3680 µM (inactive) with NCI-H522; 5640 µM (inactive) in the assay on ACHN; 7230 µM (inactive) with NCI-H460; 4080 µM (inactive) in the assay on MOLT-4; > 7830 µM (inactive) in the assay with MDA-MB-231; 3390 µM (inactive) with UO-31. The GI50 in the assay on SNB-19 was 7000 µM (inactive); with COLO 205, 5580 µM (inactive).

On to `O=C(CCN1CCCC1)Nc1ccc2sc3ccccc3c(=O)c2n1`, for which the GI50 in the assay on SK-OV-3 is 7.23 µM (inactive); in the assay on SR, 8.89 µM (inactive); with M14, 13.2 µM (inactive); in the assay with HCT-116 it was 11.5 µM (inactive); with SW-620, 12.4 µM (inactive); in the assay on A498, 17.8 µM (inactive). In addition, the GI50 with SF-539 is 12.6 µM (inactive); in the assay on CAKI-1, 11.5 µM (inactive); in the assay on CCRF-CEM it was 10.2 µM (inactive); in the assay with OVCAR-5, 12.9 µM (inactive); with HOP-62 it was 12.3 µM (inactive); in the assay with A549, 12.3 µM (inactive). The GI50 was 10.5 µM (inactive) in the assay on NCI-H522; 11.5 µM (inactive) with ACHN; > 10 µM (inactive) in the assay with NCI-H460; 4.72 µM (inactive) in the assay on MOLT-4; 13.3 µM (inactive) in the assay on MDA-MB-231; 11.7 µM (inactive) with UO-31. The GI50 in the assay with SNB-19 was 13.1 µM (inactive); with COLO 205, 11.1 µM (inactive).

With `COc1cc(NC=C2C(=O)OC(C)(C)OC2=O)c(OC)c(C)c1OC`, the GI50 with SK-OV-3, with SR, in the assay with M14, in the assay on HCT-116, with SW-620 and in the assay with A498 was > 100 µM (inactive) each time. For the same compound, the GI50 in the assay on SF-539 was > 100 µM (inactive); in the assay with CAKI-1 it was > 83.4 µM (inactive); with CCRF-CEM, > 100 µM (inactive); in the assay on OVCAR-5, > 100 µM (inactive); in the assay on HOP-62, > 100 µM (inactive); with A549 it was > 100 µM (inactive). Moreover, the GI50 with NCI-H522, with ACHN, in the assay on NCI-H460, with MOLT-4, with MDA-MB-231 and in the assay with UO-31 was > 100 µM (inactive) in each case. The GI50 with SNB-19 and in the assay with COLO 205 was > 100 µM (inactive) each time.

Regarding `C/C(=N\[N+](C)(C)C)c1ccc(C)c(C)c1`, the GI50 in the assay on SK-OV-3 was 77.6 µM (inactive); in the assay with SR it was 82.6 µM (inactive); in the assay with M14, > 10 µM (inactive); with HCT-116, 76.9 µM (inactive); in the assay with SW-620, 51.3 µM (inactive); in the assay on A498, 22.3 µM (inactive). Moreover, the GI50 in the assay on SF-539 was > 10 µM (inactive); in the assay with CAKI-1, > 10 µM (inactive); in the assay on CCRF-CEM, 35.4 µM (inactive); with OVCAR-5, 42.4 µM (inactive); in the assay on HOP-62 it was > 10 µM (inactive); in the assay on A549, 7.62 µM (inactive). For the same compound, the GI50 is 49.1 µM (inactive) in the assay with NCI-H522; > 10 µM (inactive) in the assay with ACHN; 29.4 µM (inactive) in the assay on NCI-H460; > 10 µM (inactive) in the assay with MOLT-4; > 10 µM (inactive) in the assay with MDA-MB-231; 77.4 µM (inactive) in the assay with UO-31. In addition, the results for the GI50 in the assay on SNB-19 and in the assay with COLO 205 were 42.9 µM (inactive) and 14.6 µM (inactive), respectively.

For the compound `O=C1CSC(c2cc3cc(Br)ccc3nc2Cl)N1c1ccc(Cl)cc1` (stereo not given), the GI50 was 43.3 µM (inactive) in the assay on SK-OV-3; 15.1 µM (inactive) in the assay with SR; 21.1 µM (inactive) with M14; 23.6 µM (inactive) in the assay on HCT-116; 34.3 µM (inactive) in the assay on SW-620; 36 µM (inactive) with A498. For the same compound, the GI50 in the assay on SF-539 is 17.7 µM (inactive); in the assay with CAKI-1 it was 18.5 µM (inactive); in the assay with CCRF-CEM, 7.71 µM (inactive); in the assay on OVCAR-5, 94.8 µM (inactive); with HOP-62 it was 25.8 µM (inactive); in the assay with A549, 28.1 µM (inactive). The GI50 is 17.8 µM (inactive) with NCI-H522; 13.5 µM (inactive) in the assay with ACHN; 16.1 µM (inactive) in the assay with NCI-H460; 17.4 µM (inactive) in the assay on MOLT-4; 33.1 µM (inactive) with MDA-MB-231; 32.3 µM (inactive) with UO-31. Also, the results for the GI50 with SNB-19 and in the assay with COLO 205 were 42.7 µM (inactive) and 17.9 µM (inactive), respectively.

Turning to `CC(=O)O[C@H]1C[C@H]2[C@@H](OC(C)=O)/C=C3\C[C@](C)(C(=O)[C@H](O)C(=C1C)C2(C)C)[C@@H](O)C[C@@H]3OC(=O)[C@H](O)[C@H](c1ccccc1)N(C)C`, the GI50 in the assay with SK-OV-3, with SR, with M14, in the assay with HCT-116, in the assay on SW-620 and with A498 was > 100 µM (inactive) each time. The GI50 in the assay on SF-539, with CAKI-1, in the assay on CCRF-CEM, in the assay with OVCAR-5, with HOP-62 and in the assay on A549 was > 100 µM (inactive) in each case. The GI50 in the assay with NCI-H522, with ACHN, with NCI-H460, with MOLT-4, in the assay on MDA-MB-231 and with UO-31 was > 100 µM (inactive) in each case. The GI50 in the assay with SNB-19 and with COLO 205 was > 100 µM (inactive) throughout.

In the case of `COc1ccc(-c2oc3c(OC)c(OC)c(OC)c(O)c3c(=O)c2OC)cc1OC`, the GI50 in the assay with SK-OV-3 was 8.2 µM (inactive); in the assay with SR, 7.87 µM (inactive); with M14, 26.4 µM (inactive); in the assay on HCT-116, 24.9 µM (inactive); in the assay on SW-620 it was 20.8 µM (inactive); with A498 it was 19.9 µM (inactive). The GI50 in the assay with SF-539 was 19.4 µM (inactive); in the assay on CAKI-1 it was 40.4 µM (inactive); in the assay on CCRF-CEM it was 16.9 µM (inactive); in the assay with OVCAR-5, 35.6 µM (inactive); with HOP-62, 19.5 µM (inactive); with A549, 27.5 µM (inactive). Also, the GI50 is 14.3 µM (inactive) in the assay with NCI-H522; 25 µM (inactive) with ACHN; 17.8 µM (inactive) with NCI-H460; 15.5 µM (inactive) with MOLT-4; 22.2 µM (inactive) in the assay with MDA-MB-231; 9.06 µM (inactive) in the assay on UO-31. Further, the GI50 is 63.4 µM (inactive) in the assay on SNB-19 and 25.8 µM (inactive) with COLO 205.

Regarding `Clc1ccc(-c2ccc(-c3nn4c(CNc5ccccc5)nnc4s3)o2)c(Cl)c1`, the GI50 is > 100 µM (inactive) with SK-OV-3; 27.5 µM (inactive) in the assay with SR; 93.3 µM (inactive) in the assay with M14; 43.6 µM (inactive) in the assay with HCT-116; > 100 µM (inactive) in the assay with SW-620; > 100 µM (inactive) in the assay with A498. Further, the GI50 in the assay on SF-539 was 22.5 µM (inactive); with CAKI-1, > 100 µM (inactive); in the assay with CCRF-CEM, 46.7 µM (inactive); in the assay with OVCAR-5, > 100 µM (inactive); in the assay on HOP-62, > 100 µM (inactive); in the assay with A549, 72.3 µM (inactive). Besides, the GI50 in the assay on NCI-H522 is 57.8 µM (inactive); with ACHN it was > 100 µM (inactive); in the assay with NCI-H460, 85.9 µM (inactive); in the assay on MOLT-4, 24 µM (inactive); with MDA-MB-231 it was 69.8 µM (inactive); in the assay on UO-31 it was > 100 µM (inactive). In addition, the GI50 with SNB-19 is > 100 µM (inactive); in the assay with COLO 205 it was 28 µM (inactive).

Consider `COc1ccc(S(=O)(=O)O)cc1NS(=O)(=O)c1ccc(C)cc1`, for which the GI50 in the assay on SK-OV-3, with SR, in the assay on M14, in the assay with HCT-116, in the assay on SW-620 and with A498 was > 100 µM (inactive) in each case. Moreover, the GI50 in the assay with SF-539, in the assay with CAKI-1, in the assay on CCRF-CEM, with OVCAR-5, in the assay with HOP-62 and in the assay on A549 was > 100 µM (inactive) in each case. The GI50 with NCI-H522, in the assay with ACHN, in the assay on NCI-H460, in the assay with MOLT-4, with MDA-MB-231 and with UO-31 was > 100 µM (inactive) in each case. In addition, the GI50 in the assay with SNB-19 and in the assay on COLO 205 was > 100 µM (inactive) in each case.
